Biological target: T1, Recombinant human renin (Homo sapiens, UniProt P00797)
T1 construct: purchased Cayman 10006217
T1 sequence (P00797 67-406): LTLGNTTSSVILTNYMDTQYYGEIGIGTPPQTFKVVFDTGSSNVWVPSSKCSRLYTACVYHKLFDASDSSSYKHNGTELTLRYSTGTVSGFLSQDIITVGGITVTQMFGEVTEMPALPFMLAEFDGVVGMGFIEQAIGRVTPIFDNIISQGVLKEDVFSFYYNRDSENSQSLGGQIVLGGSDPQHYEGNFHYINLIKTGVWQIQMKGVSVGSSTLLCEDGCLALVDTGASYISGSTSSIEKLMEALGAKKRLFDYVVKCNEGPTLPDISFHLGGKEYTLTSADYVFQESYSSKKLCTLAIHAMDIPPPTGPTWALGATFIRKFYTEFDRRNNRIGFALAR
Assay: Inhibition of renin (fluorogenic peptide substrate)
Assay type: biochemical
Settings: recombinant human renin 5 nM, substrate 10 μM, 2 h at room temperature, Tris buffer pH 8; compounds tested as the obtained salt
Procedure: M-2050; […] The increase in fluorescence, which is due to fluorescence resonance energy transfer, was recorded at an excitation wavelength of 330 nm and an emission wavelength of 485 nm in a microplate spectrofluorometer. Inhibitory concentrations IC50 were calculated from the percentage of inhibition of renin activity as a function of the concentration of the test compound. […] Representative IC50 values, which were determined with the compounds in the form of the obtained salt indicated in the examples above, are listed in table 8.

| Compound | IC50 [nM] |
| --- | --- |
| COC[C@H]1CN(C(=O)c2c(Oc3c(C)cccc3C)n(-c3ccccc3)c3cccnc23)CCN1 [Example 89] | 290 |
| Cc1cccc(C)c1Oc1c(C(=O)N2CCN[C@@H](CC(C)C)C2)c2ncccc2n1-c1ccccc1 [Example 97] | 7000 |
| Cc1c(F)cccc1Oc1c(C(=O)N2CCNCC2)c2cccnc2n1-c1ccccc1 [Example 129] | 170 |
| Cc1ccc(F)cc1Sc1c(C(=O)N2CCN[C@@H](C)C2)c2ncccc2n1-c1ccccc1 [Example 139, [2-(5-Fluoro-2-methyl-phenylsulfanyl)-1-phenyl-1H-pyrrolo[3,2-b]pyridin-3-yl]-((S)-3-methyl-piperazin-1-yl)-methanone] | 190 |
| CCCc1ccnc2c1c(C(=O)N1CCNCC1)c(Oc1cc(F)ccc1C)n2-c1ccccc1 [Example 133] | 1850 |
| Cc1ccc(F)cc1Oc1c(C(=O)N2CCNCC2)c2ccnc(Cl)c2n1-c1ccccc1 [Example 38, [7-Chloro-2-(5-fluoro-2-methyl-phenoxy)-1-phenyl-1H-pyrrolo[2,3-c]pyridin-3-yl]-piperazin-1-yl-methanone] | 320 |
| Cc1c(F)cc(F)cc1Oc1c(C(=O)N2CCNCC2)c2ncccc2n1-c1ccccc1 [Example 111] | 650 |
| Cc1cccc(C)c1Oc1c(C(=O)N2CCNCC2Cc2ccccc2)c2ncccc2n1-c1ccccc1 (stereo not shown) [Example 106] | 420 |
| CC(c1ccccc1)c1c(C(=O)N2CCNCC2)c2ncccc2n1-c1ccccc1 (stereo not shown) [Example 50, [1-Phenyl-2-(1-phenyl-ethyl)-1H-pyrrolo[3,2-b]pyridin-3-yl]-piperazin-1-yl-methanone] | 1000 |
| Cc1c(F)cccc1Cc1c(C(=O)N2CCN[C@@H](CO)C2)c2cnc(O)cc2n1C1CCCCC1 [Example 116] | 1100 |
| COc1cc2c(cn1)c(C(=O)N1CCN[C@@H](C)C1)c(Cc1cccc(F)c1C)n2C1CCCCC1 [Example 113] | 320 |
| COc1cc2c(C(=O)N3CCNCC3)c(Cc3cccc(F)c3C)n(-c3ccccc3)c2cn1 [Example 22, [2-(3-Fluoro-2-methyl-benzyl)-5-methoxy-1-phenyl-1H-pyrrolo[2,3-c]pyridin-3-yl]-piperazin-1-yl-methanone] | 850 |
| Cc1ccccc1Oc1c(C(=O)N2CCNCC2)c2ncccc2n1-c1ccccc1 [Example 1, [1-Phenyl-2-(2-methyl-phenoxy)-1H-pyrrolo[3,2-b]pyridin-3-yl]-piperazin-1-yl-methanone] | 250 |

Stronger by IC50, values ahead:

| IC50 [nM] | Compound |
| --- | --- |
| 120 | Cc1ccccc1Cc1c(C(=O)N2CCNCC2)c2ncccc2n1-c1ccccc1 [Example 3, [2-(2-Methyl-benzyl)-1-phenyl-1H-pyrrolo[3,2-b]pyridin-3-yl]-piperazin-1-yl-methanone] |
| 110 | Cc1cccc(C)c1Oc1c(C(=O)N2CCNCC2)c2ncc(OCC(=O)O)cc2n1-c1ccccc1 [Example 57, [2-(2,6-Dimethyl-phenoxy)-1-phenyl-3-(piperazine-1-carbonyl)-1H-pyrrolo[3,2-b]pyridin-6-yloxy]-acetic acid] |
| 100 | O=C(c1c(Cc2c(F)cccc2Cl)n(-c2ccccc2)c2ccncc12)N1CCNCC1 [Example 13, [2-(2-Chloro-6-fluoro-benzyl)-1-phenyl-1H-pyrrolo[3,2-c]pyridin-3-yl]-piperazin-1-yl-methanone] |
| 86 | Cc1c(F)cccc1Cc1c(C(=O)N2CCNCC2)c2cccnc2n1-c1ccccc1 [Example 27, [2-(3-Fluoro-2-methyl-benzyl)-1-phenyl-1H-pyrrolo[2,3-b]pyridin-3-yl]-piperazin-1-yl-methanone] |
| 80 | Cc1cccc(C)c1Oc1c(C(=O)N2CCNCC2)c2cnc(O)cc2n1C1CCCCC1 [Example 49, [1-Cyclohexyl-2-(2,6-dimethyl-phenoxy)-6-hydroxy-1H-pyrrolo[3,2-c]pyridin-3-yl]-piperazin-1-yl-methanone] |
| 77 | CCOc1cnc2c(C(=O)N3CCNCC3)c(Oc3c(C)cccc3C)n(-c3ccccc3)c2c1 [Example 54, [2-(2,6-Dimethyl-phenoxy)-6-ethoxy-1-phenyl-1H-pyrrolo[3,2-b]pyridin-3-yl]-piperazin-1-yl-methanone] |
| 70 | CNC(=O)CC1CN(C(=O)c2c(Oc3c(C)cccc3C)n(-c3ccccc3)c3cccnc23)CCN1 (stereo not shown) [Example 59, 2-{4-[2-(2,6-Dimethyl-phenoxy)-1-phenyl-1H-pyrrolo[3,2-b]pyridine-3-carbonyl]-piperazin-2-yl}-N-methyl-acetamide] |
| 57 | COC(=O)CC1CN(C(=O)c2c(Oc3c(C)cccc3C)n(-c3ccccc3)c3cccnc23)CCN1 (stereo not shown) [Example 58, {4-[2-(2,6-Dimethyl-phenoxy)-1-phenyl-1H-pyrrolo[3,2-b]pyridine-3-carbonyl]-piperazin-2-yl}-acetic acid methyl ester] |
| 5.6 | Cc1c(F)cccc1Cc1c(C(=O)N2CCNCC2)c2cc(O)cnc2n1-c1ccccc1 [Example 31, [2-(3-Fluoro-2-methyl-benzyl)-5-hydroxy-1-phenyl-1H-pyrrolo[2,3-b]pyridin-3-yl]-piperazin-1-yl-methanone] |
| 5.1 | Cc1c(F)cccc1Cc1nccc2c(C(=O)N3CCNCC3)c(Cc3cccc(F)c3C)n(-c3ccccc3)c12 [Example 40, [2,7-Bis-(3-fluoro-2-methyl-benzyl)-1-phenyl-1H-pyrrolo[2,3-c]pyridin-3-yl]-piperazin-1-yl-methanone] |
| 3 | COc1ccc2c(C(=O)N3CCNCC3)c(Oc3c(C)cccc3C)n(-c3ccccc3)c2n1 [Example 134] |
| 1.7 | Cc1ccc(F)c(C)c1Oc1c(C(=O)N2CCNCC2)c2ccncc2n1-c1ccccc1 [Example 37, [2-(3-Fluoro-2,6-dimethyl-phenoxy)-1-phenyl-1H-pyrrolo[2,3-c]pyridin-3-yl]-piperazin-1-yl-methanone] |
